Test results taken from patent publication US20230279002A1, “Polymorphs of Crystalline Forms of 3,10-dimethoxy-5,8,13,13a-tetrahydro-6H-isoquinolino[3,2-a]isoquinolin-9-yl 3-fluorobenzenesulfonate and Salts Thereof” (CVI Pharmaceuticals Limited, priority 2020, published 2023).
Entries after “also recorded” stand apart in the source; their conditions may differ.

Legend:
Format in all cases: physicochemical
[1] = Solubility in SGF, FaSSIF, FeSSIF, 0.1M HCl, pH 4.5 and pH 6.8 aqueous at 25° C. (HPLC); details: for Solubility conc.(mg/ml): solubility of salts transformed to freebase; for Final pH: solubility test
Experimental: Solubility: Excess drug substance was equilibrated with SGF (Simulated Gastric Fluid), FaSSIF (Simulated Small Intestinal Fluid under Fasted state), FeSSIF (Simulated Small Intestinal Fluid under Fed state), 0.1M HCl, pH 4.5 aqueous, and pH 6.8 aqueous at 25° C. After stirring for 20˜24 h, each sample was filtered, diluted appropriately and analyzed by HPLC. The experiment was terminated once a solubility target of 5 mg/mL was reached.

[2] = DVS (Dynamic Vapor Sorption) moisture sorption/desorption, hygroscopicity classification; details: 25 °C; for Change In Mass (%) - ref, Desorption / Change In Mass (%) - ref, Sorption / Change In Mass (%) - ref, Hysteresis: Cycle 1
In short: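 Moisture sorption/desorption profiled by DVS on about 10–20 mg sample, isothermal at 25° C, cycling 0%→95%→0% RH in 5% RH steps. Equilibrium per step taken at dm/dt ≤ 0.01%/min. Hygroscopicity class assigned from %-moisture gain versus rising RH.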

[3] = Solid stability at 40° C./0% RH (closed) and 40° C./75% RH (open), HPLC; details: for 0 day % remaining / 7 day % remaining / 21 day % remaining: solid
In short: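 Solid compound (5 mg) stored in the dark at 40 °C/0% RH in closed vials and at 40 °C/75% RH open. Samples analysed by HPLC at day 0, 5 and 10, or at days 0, 7 and 21, depending on the study.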

[4] = TGA (Thermal Gravimetric Analysis) weight loss; details: room temperature to 120° C.
Experimental: TGA (Thermal Gravimetric Analysis): Samples of compounds (4˜6 mg) were weighed into the pan, and heated under nitrogen purge using a ramp rate of 20° C./min over the range of 30° C.˜350° C.

[5] = Solution stability in 0.1 N HCl, pH 4.5 buffer and pH 6.8 buffer at 25° C. and 37° C., HPLC
In short: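 Methanol stock (1.0 mg/mL) diluted with each medium to ionic strength 0.15 M, final 50 μg/mL in 40% MeOH; acetate used for pH 4.5. For 1b and 3b at pH 6.8, final 25 μg/mL in 40% DMSO. Solutions stored at 25° C. and 37° C.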

## 3,10-dimethoxy-5,8,13,13a-tetrahydro-6H-isoquinolino[3,2-a]isoquinolin-9-yl 3-fluorobenzenesulfonate [Compound 1b]
[1]; 0.1N HCL
  Solubility conc.(mg/ml): 0.605 mg/mL
  Final pH: 1.68
[1]; FaSSIF
  Solubility conc.(mg/ml): 0.007 mg/mL
  Final pH: 6.52
[1]; FeSSIF
  Solubility conc.(mg/ml): 0.009 mg/mL
  Final pH: 5.14
[1]; SGF
  Solubility conc.(mg/ml): 0.588 mg/mL
  Final pH: 1.67
[1]; Water
  Solubility conc.(mg/ml): 0.008 mg/mL
  Final pH: 5.42
[1]; pH 4.5 Acetate Buffer (USP)
  Solubility conc.(mg/ml): 0.008 mg/mL
  Final pH: 4.59
[1]; pH 6.8 Phosphate Buffer (USP)
  Solubility conc.(mg/ml): 0.011 mg/mL
  Final pH: 6.91
[2]
  Hygroscopicity classification by DVS: non-hygroscopic; also recorded: not hygroscopic
[2]; Target RH 0.0 %
  Change In Mass (%) - ref, Desorption: 0.0000%
  Change In Mass (%) - ref, Sorption: 0.0000%
[2]; Target RH 5.0 %
  Change In Mass (%) - ref, Desorption: 0.0094%
  Change In Mass (%) - ref, Hysteresis: 0.0031%
  Change In Mass (%) - ref, Sorption: 0.0063%
[2]; Target RH 10.0 %
  Change In Mass (%) - ref, Desorption: 0.0157%
  Change In Mass (%) - ref, Hysteresis: 0.0052%
  Change In Mass (%) - ref, Sorption: 0.0104%
[2]; Target RH 15.0 %
  Change In Mass (%) - ref, Desorption: 0.0198%
  Change In Mass (%) - ref, Hysteresis: 0.0063%
  Change In Mass (%) - ref, Sorption: 0.0136%
[2]; Target RH 20.0 %
  Change In Mass (%) - ref, Desorption: 0.0251%
  Change In Mass (%) - ref, Hysteresis: 0.0073%
  Change In Mass (%) - ref, Sorption: 0.0178%
[2]; Target RH 25.0 %
  Change In Mass (%) - ref, Desorption: 0.0292%
  Change In Mass (%) - ref, Hysteresis: 0.0084%
  Change In Mass (%) - ref, Sorption: 0.0209%
[2]; Target RH 30.0 %
  Change In Mass (%) - ref, Desorption: 0.0334%
  Change In Mass (%) - ref, Hysteresis: 0.0104%
  Change In Mass (%) - ref, Sorption: 0.0230%
[2]; Target RH 35.0 %
  Change In Mass (%) - ref, Desorption: 0.0386%
  Change In Mass (%) - ref, Hysteresis: 0.0125%
  Change In Mass (%) - ref, Sorption: 0.0261%
[2]; Target RH 40.0 %
  Change In Mass (%) - ref, Desorption: 0.0449%
  Change In Mass (%) - ref, Hysteresis: 0.0094%
  Change In Mass (%) - ref, Sorption: 0.0355%
[2]; Target RH 45.0 %
  Change In Mass (%) - ref, Desorption: 0.0501%
  Change In Mass (%) - ref, Hysteresis: 0.0104%
  Change In Mass (%) - ref, Sorption: 0.0397%
[2]; Target RH 50.0 %
  Change In Mass (%) - ref, Desorption: 0.0543%
  Change In Mass (%) - ref, Hysteresis: 0.0115%
  Change In Mass (%) - ref, Sorption: 0.0428%
[2]; Target RH 55.0 %
  Change In Mass (%) - ref, Desorption: 0.0606%
  Change In Mass (%) - ref, Hysteresis: 0.0146%
  Change In Mass (%) - ref, Sorption: 0.0460%
[2]; Target RH 60.0 %
  Change In Mass (%) - ref, Desorption: 0.0658%
  Change In Mass (%) - ref, Hysteresis: 0.0178%
  Change In Mass (%) - ref, Sorption: 0.0480%
[2]; Target RH 65.0 %
  Change In Mass (%) - ref, Desorption: 0.0689%
  Change In Mass (%) - ref, Hysteresis: 0.0178%
  Change In Mass (%) - ref, Sorption: 0.0512%
[2]; Target RH 70.0 %
  Change In Mass (%) - ref, Desorption: 0.0731%
  Change In Mass (%) - ref, Hysteresis: 0.0157%
  Change In Mass (%) - ref, Sorption: 0.0574%
[2]; Target RH 75.0 %
  Change In Mass (%) - ref, Desorption: 0.0794%
  Change In Mass (%) - ref, Hysteresis: 0.0146%
  Change In Mass (%) - ref, Sorption: 0.0648%
[2]; Target RH 80.0 %
  Change In Mass (%) - ref, Desorption: 0.0857%
  Change In Mass (%) - ref, Hysteresis: 0.0136%
  Change In Mass (%) - ref, Sorption: 0.0721%
[2]; Target RH 85.0 %
  Change In Mass (%) - ref, Desorption: 0.0940%
  Change In Mass (%) - ref, Hysteresis: 0.0136%
  Change In Mass (%) - ref, Sorption: 0.0804%
[2]; Target RH 90.0 %
  Change In Mass (%) - ref, Desorption: 0.1065%
  Change In Mass (%) - ref, Hysteresis: 0.0115%
  Change In Mass (%) - ref, Sorption: 0.0951%
[2]; Target RH 95.0 %
  Change In Mass (%) - ref, Desorption: 0.1159%
  Change In Mass (%) - ref, Sorption: 0.1159%
[2]; at 95% RH
  moisture picked up (DVS): ~0.2%
[3]; 40° C./0% RH (closed) and 40° C./75% RH (open), dark, up to 3 weeks
  Solid-state stability (HPLC): substantially stable
[3]; 40° C. (0% RH, closed)
  0 day % remaining: 100.0%
  7 day % remaining: 99.3%
  21 day % remaining: 98.4%
[3]; 40° C./75% RH (open)
  0 day % remaining: 100.0%
  7 day % remaining: 99.2%
  21 day % remaining: 102.0%
[4]
  TGA weight loss (in words): almost no weight loss
[5]; 25° C., 0.1N HCL, 0 h, 50 μg/mL, 40% MeOH
  Remaining %: 100.00%
[5]; 25° C., 0.1N HCL, 3 h, 50 μg/mL, 40% MeOH
  Remaining %: 100.53%
[5]; 25° C., 0.1N HCL, 24 h, 50 μg/mL, 40% MeOH
  Remaining %: 100.88%
[5]; 25° C., 24 h, 0.1N HCl, pH 4.5 buffer
  Solution stability: stable
[5]; 25° C., 24 h, pH 6.8 buffer
  Solution stability: clear degradations
[5]; 25° C., pH 4.5, 0 h, 50 μg/mL, 40% MeOH
  Remaining %: 100.00%
[5]; 25° C., pH 4.5, 3 h, 50 μg/mL, 40% MeOH
  Remaining %: 99.94%
[5]; 25° C., pH 4.5, 24 h, 50 μg/mL, 40% MeOH
  Remaining %: 98.79%
[5]; 25° C., pH 6.8*, 0 h, final conc. 25 μg/mL with 40% DMSO
  Remaining %: 100.00%
[5]; 25° C., pH 6.8*, 3 h, final conc. 25 μg/mL with 40% DMSO
  Remaining %: 99.18%
[5]; 25° C., pH 6.8*, 24 h, final conc. 25 μg/mL with 40% DMSO
  Remaining %: 91.23%
[5]; 37° C., 0.1N HCL, 0 h, 50 μg/mL, 40% MeOH
  Remaining %: 100.00%
[5]; 37° C., 0.1N HCL, 3 h, 50 μg/mL, 40% MeOH
  Remaining %: 101.92%
[5]; 37° C., 0.1N HCL, 24 h, 50 μg/mL, 40% MeOH
  Remaining %: 100.14%
[5]; 37° C., 24 h, 0.1N HCl, pH 4.5 buffer
  Solution stability: stable
[5]; 37° C., 24 h, pH 6.8 buffer
  Solution stability: decomposed
[5]; 37° C., pH 4.5, 0 h, 50 μg/mL, 40% MeOH
  Remaining %: 100.00%
[5]; 37° C., pH 4.5, 3 h, 50 μg/mL, 40% MeOH
  Remaining %: 99.51%
[5]; 37° C., pH 4.5, 24 h, 50 μg/mL, 40% MeOH
  Remaining %: 98.83%
[5]; 37° C., pH 6.8*, 0 h, final conc. 25 μg/mL with 40% DMSO
  Remaining %: 100.00%
[5]; 37° C., pH 6.8*, 3 h, final conc. 25 μg/mL with 40% DMSO
  Remaining %: 98.97%
[5]; 37° C., pH 6.8*, 24 h, final conc. 25 μg/mL with 40% DMSO
  Remaining %: 94.70%
